Results: patent US9315503B2, “Kinase inhibitors” (CHIESI FARMACEUTICI S.p.A., priority 2011, dated 2016)
Counter-ions that a name gives are not always drawn.

Legend:
[1] = tested on: LPS-stimulated TNFα release from PBMCs; assay: LPS-stimulated PBMC TNFα release assay; type: cell-based; conditions: inhibition of TNFα release, human PBMCs, LPS 10 ng/ml, 18 h, ELISA, read-out: p38α inhibition (IC50 values)
Method in brief: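 Healthy-donor human PBMCs, density-gradient isolated, preincubated 1 h at 37 °C with compound in 1% FBS RPMI 1640, then stimulated with LPS (10 ng/ml) for 18 h. Supernatant TNFα by ELISA; IC50 from dose-response of % inhibition of control release, n≥3 experiments.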

[2] = molecular target: T1, p38alpha (Homo sapiens, UniProt Q16539); assay: P38Alpha enzyme inhibition assay (Alphascreen kinase activity assay); type: biochemical; conditions: 100 pM p38alpha, 250 μM ATP, 2 hours pre-incubation at 25° C., read-out: p38α inhibition (IC50 values)
T1 construct: purchased Invitrogen PV3304
T1 sequence (Q16539 whole entry): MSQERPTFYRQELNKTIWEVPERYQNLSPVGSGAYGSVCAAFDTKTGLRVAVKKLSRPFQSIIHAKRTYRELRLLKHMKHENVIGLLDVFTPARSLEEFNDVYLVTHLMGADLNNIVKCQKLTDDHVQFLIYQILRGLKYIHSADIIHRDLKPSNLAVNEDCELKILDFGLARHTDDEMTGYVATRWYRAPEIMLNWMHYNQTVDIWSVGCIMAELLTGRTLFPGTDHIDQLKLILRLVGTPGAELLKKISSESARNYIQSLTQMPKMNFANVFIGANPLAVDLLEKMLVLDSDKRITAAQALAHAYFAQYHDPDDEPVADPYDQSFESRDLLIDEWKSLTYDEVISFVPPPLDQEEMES
Method in brief: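 p38α (100 pM) with ATF-2 fusion protein substrate (0.3 µg/ml) in pH 7.5 HEPES/MgCl2 buffer, 1% DMSO, preincubated 2 h at 25°C with compound. Reaction started with 250 µM ATP, ran 1 h at 25°C, then stopped with EDTA. Phospho-ATF2 antibody detected by AlphaScreen luminescence; IC50 from concentration-response curves.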

With `Cc1ccc(-n2nc(C(C)(C)C)cc2NC(=O)N[C@H]2CC[C@@H](Oc3ccc4nnc(N5CCN(C)CC5)n4c3)c3ccccc32)cc1` [Example 68, 1-(5-tert-Butyl-2-p-tolyl-2H-pyrazol-3-yl)-3-{(1S,4R)-4-[3-(4-methyl-piperazin-1-yl)-[1,2,4]triazolo[4,3-a]pyridin-6-yloxy]-1,2,3,4-tetrahydro-naphthalen-1-yl}-urea] the IC50 [1] was < 10 nM and the IC50 [2] was < 10 nM.
With `Cc1ccc(-n2nc(C(C)(C)C)cc2NC(=O)N[C@H]2CC[C@@H](Oc3ccc4nnc(N5CCCN(C)CC5)n4c3)c3ccccc32)cc1` [Example 69, 1-(5-tert-Butyl-2-p-tolyl-2H-pyrazol-3-yl)-3-{(1S,4R)-4-[3-(4-methyl-[1,4]diazepan-1-yl)-[1,2,4]triazolo[4,3-a]pyridin-6-yloxy]-1,2,3,4-tetrahydro-naphthalen-1-yl}urea] the IC50 [1] was < 10 nM and the IC50 [2] was < 10 nM.
For `CC(C)(C)c1cc(NC(=O)N[C@H]2CC[C@@H](Oc3ccc4nnc(N5CCCCC5)n4c3)c3ccccc32)n(-c2ccc(O)cc2)n1` [Example 70, 1-[5-tert-Butyl-2-(4-hydroxy-phenyl)-2H-pyrazol-3-yl]-3-[(1S,4R)-4-(3-piperidin-1-yl-[1,2,4]triazolo[4,3-a]pyridin-6-yloxy)-1,2,3,4-tetrahydro-naphthalen-1-yl]-urea], the IC50 [1] was < 10 nM and the IC50 [2] was < 10 nM.
With `CC(C)(C)c1cc(NC(=O)N[C@H]2CC[C@@H](Oc3ccc4nnc(N5CCCCC5)n4c3)c3ccccc32)n(-c2ccc(C#N)cc2)n1` [Example 71, 1-[5-tert-Butyl-2-(4-cyano-phenyl)-2H-pyrazol-3-yl]-3-[(1S,4R)-4-(3-piperidin-1-yl-[1,2,4]triazolo[4,3-a]pyridin-6-yloxy)-1,2,3,4-tetrahydro-naphthalen-1-yl]-urea] the IC50 [1] was < 10 nM and the IC50 [2] was < 10 nM.
In the case of `Cc1ccc(-n2nc(C(C)(C)C)cc2NC(=O)N[C@H]2CC[C@H](Oc3ccc4nnc([C@@H]5CCCN5C)n4c3)c3ccccc32)cc1` [Example 72, 1-(5-tert-Butyl-2-p-tolyl-2H-pyrazol-3-yl)-3-{(1S,4S)-4-[3-((S)-1-methyl-pyrrolidin-2-yl)-[1,2,4]triazolo[4,3-a]pyridin-6-yloxy]-1,2,3,4-tetrahydro-naphthalen-1-yl}-urea], the IC50 [1] is reported as < 10 nM and the IC50 [2] is reported as < 10 nM.
`CN1CCC[C@H]1c1nnc2ccc(O[C@@H]3CC[C@H](NC(=O)Nc4cc(C(C)(C)C)nn4-c4ccc(O)cc4)c4ccccc43)cn12` [Example 73, 1-[5-tert-Butyl-2-(4-hydroxy-phenyl)-2H-pyrazol-3-yl]-3-{(1S,4R)-4-[3-((S)-1-methyl-pyrrolidin-2-yl)-[1,2,4]triazolo[4,3-a]pyridin-6-yloxy]-1,2,3,4-tetrahydro-naphthalen-1-yl}-urea] was tested, and the IC50 [1] was < 10 nM and the IC50 [2] was < 10 nM.
For `Cc1ccc(-n2nc(C(C)(C)C)cc2NC(=O)N[C@H]2CC[C@@H](Oc3ccc4nnc(N5CCC(C(C)(C)O)CC5)n4c3)c3ccccc32)cc1` [Example 74, 1-(5-tert-Butyl-2-p-tolyl-2H-pyrazol-3-yl)-3-((1S,4R)-4-{3-[4-(1-hydroxy-1-methyl-ethyl)-piperidin-1-yl]-[1,2,4]triazolo[4,3-a]pyridin-6-yloxy}-1,2,3,4-tetrahydro-naphthalen-1-yl)-urea], the IC50 [1] was < 10 nM and the IC50 [2] was < 10 nM.
With `Cc1ccc(-n2nc(C(C)(C)C)cc2NC(=O)N[C@H]2CC[C@@H](Oc3ccc4nnc(N5CCCC5)n4c3)c3ccccc32)cc1` [Example 75, 1-(5-tert-Butyl-2-p-tolyl-2H-pyrazol-3-yl)-3-[(1S,4R)-4-(3-pyrrolidin-1-yl-[1,2,4]triazolo[4,3-a]pyridin-6-yloxy)-1,2,3,4-tetrahydro-naphthalen-1-yl]-urea] the IC50 [1] was < 10 nM and the IC50 [2] was < 10 nM.
In the case of `Cc1ccc(-n2nc(C(C)(C)C)cc2NC(=O)N[C@H]2CC[C@@H](Oc3ccc4nnc(C(C)(C)N(C)C)n4c3)c3ccccc32)cc1` [Example 76, 1-(5-tert-Butyl-2-p-tolyl-2H-pyrazol-3-yl)-3-{(1S,4R)-4-[3-(1-dimethylamino-1-methyl-ethyl)-[1,2,4]triazolo[4,3-a]pyridin-6-yloxy]-1,2,3,4-tetrahydro-naphthalen-1-yl}-urea partial formate salt], the IC50 [1] is reported as < 10 nM and the IC50 [2] is reported as < 10 nM.
`Cc1ccc(-n2nc(C(C)(C)C)cc2NC(=O)N[C@H]2CC[C@@H](Oc3ccc4nnc(N5CCC[C@@H](CO)C5)n4c3)c3ccccc32)cc1` [Example 77, 1-(5-tert-Butyl-2-p-tolyl-2H-pyrazol-3-yl)-3-{(1S,4R)-4-[3-((R)-3-hydroxymethyl-piperidin-1-yl)-[1,2,4]triazolo[4,3-a]pyridin-6-yloxy]-1,2,3,4-tetrahydro-naphthalen-1-yl}-urea] was tested, and the IC50 [1] was < 10 nM and the IC50 [2] was < 10 nM.
With `Cc1ccc(-n2nc(C(C)(C)C)cc2NC(=O)N[C@H]2CC[C@@H](Oc3ccc4nnc(N5CCC[C@H](CO)C5)n4c3)c3ccccc32)cc1` [Example 78, 1-(5-tert-Butyl-2-p-tolyl-2H-pyrazol-3-yl)-3-{(1S,4R)-4-[3-((S)-3-hydroxymethyl-piperidin-1-yl)-[1,2,4]triazolo[4,3-a]pyridin-6-yloxy]-1,2,3,4-tetrahydro-naphthalen-1-yl}-urea] the IC50 [1] was < 10 nM and the IC50 [2] was < 10 nM.
With `Cc1ccc(-n2nc(C(C)(C)C)cc2NC(=O)N[C@H]2CC[C@@H](Oc3ccc4nnc(N5CCC(C)(O)CC5)n4c3)c3ccccc32)cc1` [Example 79, 1-(5-tert-Butyl-2-p-tolyl-2H-pyrazol-3-yl)-3-{(1S,4R)-4-[3-(4-hydroxy-4-methyl-piperidin-1-yl)-[1,2,4]triazolo[4,3-a]pyridin-6-yloxy]-1,2,3,4-tetrahydro-naphthalen-1-yl}-urea] the IC50 [1] was < 10 nM and the IC50 [2] was < 10 nM.
For `Cc1ccc(-n2nc(C(C)(C)C)cc2NC(=O)N[C@H]2CC[C@@H](Oc3ccc4nnc(C(C)(C)N5CCCC5)n4c3)c3ccccc32)cc1` [Example 80, 1-(5-tert-Butyl-2-p-tolyl-2H-pyrazol-3-yl)-3-{(1S,4R)-4-[3-(1-methyl-1-pyrrolidin-1-yl-ethyl)-[1,2,4]triazolo[4,3-a]pyridin-6-yloxy]-1,2,3,4-tetrahydro-naphthalen-1-yl}-urea], the IC50 [1] was < 10 nM and the IC50 [2] was < 10 nM.
For `Cc1ccc(-n2nc(C(C)(C)C)cc2NC(=O)N[C@H]2CC[C@@H](Oc3ccc4nnc(N5CCCC[C@@H]5C)n4c3)c3ccccc32)cc1` [Example 81, 1-(5-tert-Butyl-2-p-tolyl-2H-pyrazol-3-yl)-3-{(1S,4R)-4-[3-((S)-2-methyl-piperidin-1-yl)-[1,2,4]triazolo[4,3-a]pyridin-6-yloxy]-1,2,3,4-tetrahydro-naphthalen-1-yl}-urea], the IC50 [1] was < 10 nM and the IC50 [2] was < 10 nM.
For `Cc1ccc(-n2nc(C(C)(C)C)cc2NC(=O)N[C@H]2CC[C@@H](Oc3ccc4nnc(N5CCCC[C@H]5C)n4c3)c3ccccc32)cc1` [Example 82, 1-(5-tert-Butyl-2-p-tolyl-2H-pyrazol-3-yl)-3-{(1S,4R)-4-[3-((R)-2-methyl-piperidin-1-yl)-[1,2,4]triazolo[4,3-a]pyridin-6-yloxy]-1,2,3,4-tetrahydro-naphthalen-1-yl}-urea], the IC50 [1] was < 10 nM and the IC50 [2] was < 10 nM.
In the case of `Cc1ccc(-n2nc(C(C)(C)C)cc2NC(=O)N[C@H]2CC[C@@H](Oc3ccc4nnc([C@H]5COCCN5C)n4c3)c3ccccc32)cc1` [Example 83, 1-(5-tert-Butyl-2-p-tolyl-2H-pyrazol-3-yl)-3-{(1S,4R)-4-[3-((S)-4-methyl-morpholin-3-yl)-[1,2,4]triazolo[4,3-a]pyridin-6-yloxy]-1,2,3,4-tetrahydro-naphthalen-1-yl}-urea, partial formate salt], the IC50 [1] is reported as < 10 nM and the IC50 [2] is reported as < 10 nM.
`Cc1ccc(-n2nc(C(C)(C)C)cc2NC(=O)N[C@H]2CC[C@@H](Oc3ccc4nnc([C@@H]5CCCN5CCCO)n4c3)c3ccccc32)cc1` [Example 84, 1-(5-tert-Butyl-2-p-tolyl-2H-pyrazol-3-yl)-3-((1S,4R)-4-{3-[(S)-1-(3-hydroxy-propyl)-pyrrolidin-2-yl]-[1,2,4]triazolo[4,3-a]pyridin-6-yloxy}-1,2,3,4-tetrahydro-naphthalen-1-yl)-urea] was tested, and the IC50 [1] was < 10 nM and the IC50 [2] was < 10 nM.
For `Cc1ccc(-n2nc(C(C)(C)C)cc2NC(=O)N[C@H]2CC[C@@H](Oc3ccc4nnc([C@]5(CO)CCCN5C)n4c3)c3ccccc32)cc1` [Example 85, 1-(5-tert-Butyl-2-p-tolyl-2H-pyrazol-3-yl)-3-{(1S,4R)-4-[3-((S)-2-hydroxymethyl-1-methyl-pyrrolidin-2-yl)-[1,2,4]triazolo[4,3-a]pyridin-6-yloxy]-1,2,3,4-tetrahydro-naphthalen-1-yl}-urea], the IC50 [1] was < 10 nM and the IC50 [2] was < 10 nM.
With `Cc1ccc(-n2nc(C(C)(C)C)cc2NC(=O)N[C@H]2CC[C@@H](Oc3ccc4nnc(C5CN(C)CCN5C)n4c3)c3ccccc32)cc1` (stereo partly drawn) [Example 86, 1-(5-tert-Butyl-2-p-tolyl-2H-pyrazol-3-yl)-3-{(1S,4R)-4-[3-(1,4-dimethyl-piperazin-2-yl)-[1,2,4]triazolo[4,3-a]pyridin-6-yloxy]-1,2,3,4-tetrahydro-naphthalen-1-yl}-urea formate salt] the IC50 [1] was < 10 nM and the IC50 [2] was < 10 nM.
With `Cc1ccc(-n2nc(C(C)(C)C)cc2NC(=O)N[C@H]2CC[C@@H](Oc3ccc4nnc([C@@H]5CC(C)(C)CN5C)n4c3)c3ccccc32)cc1` [Example 87, 1-(5-tert-Butyl-2-p-tolyl-2H-pyrazol-3-yl)-3-{(1S,4R)-4-[3-((S)-1,4,4-trimethyl-pyrrolidin-2-yl)-[1,2,4]triazolo[4,3a]pyridin-6-yloxy]-1,2,3,4-tetrahydro-naphthalen-1-yl}-urea] the IC50 [1] was < 10 nM and the IC50 [2] was < 10 nM.
